We go through eight molecules from PMC11494662, “Insight into the Course of the Ferrier Rearrangement Used to Obtain Untypical Diosgenyl Saponins” (The Journal of Organic Chemistry, 2024).

Assay [1] has as its system prostate cancer cells (PC3 line). In words: MTT cytotoxicity assay, PC3. Type of assay: cell-based, human. The note with it: for IC50: Homo sapiens, PC-3; for IC50 / IC50 PC3: PC3 cells, 48 h treatment, MTT; for SI PC3 (selectivity index): ratio of IC50 for normal cell line (HaCaT) to IC50 for PC3, 48 h. The procedure: (§1) The MTT assay was performed to specify the cytotoxicity of 7–12 and 13–18 against prostate cancer cells (PC3 line), breast cancer cells (MCF7 line), and human keratinocytes (HaCaT line). The mentioned cell lines were assayed by exposing them for 48 h to a medium containing the studied compounds over a wide range of concentrations. The IC50 values (dose of the compound which caused a 50% reduction of cell viability) and the selectivity indexes (SI), which show the ratio of IC50 for normal cell line to IC50 for cancer cell line, are shown in Table S2. An MTT assay was performed to specify the cytotoxicity of the studied compounds against breast cancer cells (MCF-7 line, ATCC), prostate cancer cells (PC3 line, ATCC) and human keratinocytes (HaCaT line, CLS). The MCF-7 cell line was cultured in an RPMI 1640 medium (Gibco, Thermo Fisher Scientific), the PC3 cell line in a F-12K medium (Gibco, Thermo Fisher Scientific), and the HaCaT cell line in a high-glucose DMEM (Gibco, Thermo Fisher Scientific). Each medium was supplemented with 10% fetal bovine serum (Gibco, Thermo Fisher Scientific) and antibiotics (penicillin and streptomycin, Gibco, Thermo Fisher Scientific). Cells were seeded at a density of 4000 per well into 96-well plates and incubated at 37 °C in a 5% CO2 atmosphere. The cells were treated with studied compounds in a concentration range of 0.1–100 μg/mL or with a vehicle (1% DMSO) as a control and subsequently incubated for 48 h. Thereafter, the MTT salt solution (3-(4,5-dimethylthiazol-2-yl)-2,5-diphenyltetrazolium bromide, VWR) was added at a concentration of 4 mg/mL (25 μL per well), and the obtained product (formazan) after 3 h of incubation was dissolved in DMSO. An EnSpire microplate reader (PerkinElmer) was used to measure absorbance at 570 nm (the reference wavelength was 660 nm). The viability of the control cells was taken as 100%. Three independent experiments were conducted in triplicate. Statistical analysis of the results and estimation of IC50 values were performed using GraphPad Prism 7 software.

The test system of assay [2] is breast cancer cells (MCF-7 line). The assay is described as follows: MTT cytotoxicity assay, MCF7. The note with it: for IC50: Homo sapiens; for IC50 / IC50 MCF7: MCF7 cells, 48 h treatment, MTT; for SI MCF7 (selectivity index): ratio of IC50 for normal cell line (HaCaT) to IC50 for MCF7, 48 h. Type of assay: cell-based, human. The procedure: as §1
(In general: Tetrazolium assays rely on reduction of a dye to a coloured formazan, in cell work by metabolically active cells.)

For another assay, the system named is S. aureus ATCC 12598. The assay is described as follows: MIC, broth dilution method. It counts as cell-based. The conditions noted are these: Staphylococcus aureus, ATCC12598; MHB II, 18 h, 37 °C; read-out: Minimum inhibitory concentration S. aureus ATCC 12598. How it is done: (§2) MIC was determined with the dilution method in Mueller–Hinton II broth (MHB II) on 96-well polystyrene plates. The reference strains (Polish Academy of Sciences, Wroclaw, Poland) of Gram-positive bacteria (Enterococcus faecium ATCC 29,212, S. aureus ATCC 6538, S. aureus ATCC 43,300, S. aureus ATCC 12,598, S. aureus ATCC 25,923, S. aureus, ATCC 33,591, Staphylococcus epidermidis ATCC 14,990) and Gram-negative bacteria (Acinetobacter baumanii ATCC 23,506, Escherichia coli ATCC 25,922, Klebsiella pneumoniae ATCC 700,603, Pseudomonas aeruginosa ATCC 9027) were suspended in MHB II medium to initial inoculum of 10^5 cfu/mL. The microbes were exposed to graded concentrations of tested compounds (range 0.5–256 mg/L) for 18 h at 37 °C under aerobic conditions. The compounds were dissolved in DMSO and then diluted with PBS. […] MIC was taken as the lowest concentration at which no microbial growth was observed. The experiments were performed in triplicate.
On the technique in general: Dilution methods test growth across graded concentrations, often in twofold steps.

In assay [3] the test system is S. epidermidis ATCC 14990. In words: MIC, broth dilution method. Type of assay: cell-based. The conditions noted are these: Staphylococcus epidermidis, ATCC14990; MHB II, 18 h, 37 °C; read-out: Minimum inhibitory concentration S. epidermidis ATCC 14990. The procedure: as §2
The next assay concerns S. aureus ATCC 33591. The assay is described as follows: MIC, broth dilution method. Type of assay: cell-based. The note with it: Staphylococcus aureus, ATCC33591; MHB II, 18 h, 37 °C; read-out: Minimum inhibitory concentration S. aureus ATCC 33591. How it is done: as §2
The subject of another assay is E. faecium ATCC 29212. In words: MIC, broth dilution method. It counts as cell-based. The conditions noted are these: Enterococcus faecium, ATCC29212; MHB II, 18 h, 37 °C; read-out: Minimum inhibitory concentration E. faecium ATCC 29212. The procedure:
as §2

For the next assay, the system named is S. aureus ATCC 6538. The assay is described as follows: MIC, broth dilution method. It counts as cell-based. The note with it: Staphylococcus aureus, ATCC6538; MHB II, 18 h, 37 °C; read-out: Minimum inhibitory concentration S. aureus ATCC 6538. The procedure: as §2
Another assay concerns S. aureus ATCC 25923. The assay is described as follows: MIC, broth dilution method. The conditions noted are these: Staphylococcus aureus, ATCC25923; MHB II, 18 h, 37 °C; read-out: Minimum inhibitory concentration S. aureus ATCC 25923. Type of assay: cell-based. The procedure: as §2
For a further assay, the system named is S. aureus ATCC 43300. The assay is described as follows: MIC, broth dilution method. It counts as cell-based. The note with it: Staphylococcus aureus, ATCC43300; MHB II, 18 h, 37 °C; read-out: Minimum inhibitory concentration S. aureus ATCC 43300. The procedure:
as §2

The test system of assay [4] is human keratinocytes (HaCaT line). The assay is described as follows: MTT cytotoxicity assay, HaCaT. It counts as cell-based. The conditions noted are these: HaCaT normal cells, 48 h treatment; for IC50: Homo sapiens. The procedure: as §1

In brackets after ≈: the same amount, converted by molar mass.

Usually IC50 stands for the concentration that gives 50% inhibition. A lower IC50 goes with greater potency in that assay. Turning to `C[C@@H]1CC[C@@]2(OC1)O[C@H]1C[C@H]3[C@@H]4CC=C5C[C@@H](O[C@H]6CC[C@@H](O)[C@H](C)O6)CC[C@]5(C)[C@H]4CC[C@]3(C)[C@H]1[C@@H]2C` [15α, Diosgenyl 2,3,6-Trideoxy-α-L-erythro-hexopyranoside], the IC50 in assay [1] worked out at 26.5 µM; in assay [2], 87.1 µM; in assay [4], 56.9 µM. Moreover, the MIC is more than 256 µg/mL in the assay on S. aureus ATCC 12598; more than 256 µg/mL in assay [3]; more than 256 µg/mL in the assay with S. aureus ATCC 33591; more than 256 µg/mL in the assay on E. faecium ATCC 29212; 256 µg/mL (≈ 484 µM) in the assay on S. aureus ATCC 6538; 256 µg/mL (≈ 484 µM) with S. aureus ATCC 25923. Also, in the assay with S. aureus ATCC 43300, the MIC is more than 256 µg/mL.
`C[C@@H]1CC[C@@]2(OC1)O[C@H]1C[C@H]3[C@@H]4CC=C5C[C@@H](O[C@H]6C=C[C@H](O)[C@H](C)O6)CC[C@]5(C)[C@H]4CC[C@]3(C)[C@H]1[C@@H]2C` [10α, Diosgenyl 2,3,6-Trideoxy-α-L-threo-hex-2-enopyranoside]: the IC50 in assay [1] is 49.7 µM; in [2], 57.6 µM; in [4], 50.9 µM. The “SI PC3 (selectivity index)” value in [1] is on record as 1.02. In addition, the “SI MCF7 (selectivity index)” value in assay [2] stood at 0.88. The MIC (in the assay with S. aureus ATCC 12598; in assay [3]; with S. aureus ATCC 33591; in the assay on E. faecium ATCC 29212; with S. aureus ATCC 6538; with S. aureus ATCC 25923) was more than 256 µg/mL in each case. Also, the MIC with S. aureus ATCC 43300 was more than 256 µg/mL.
With `C[C@@H]1CC[C@@]2(OC1)O[C@H]1C[C@H]3[C@@H]4CC=C5C[C@@H](O[C@@H]6C=C[C@H](O)CO6)CC[C@]5(C)[C@H]4CC[C@]3(C)[C@H]1[C@@H]2C` [11α], the IC50 was found to be 24.4 µM in [1], 40.6 µM in assay [2] and 24.5 µM in [4]. Besides, the “SI PC3 (selectivity index)” value in assay [1] stood at 1.00. In [2], the “SI MCF7 (selectivity index)” value was 0.60. Besides, the MIC is more than 256 µg/mL with S. aureus ATCC 12598; 256 µg/mL (≈ 499 µM) in assay [3]; more than 256 µg/mL with S. aureus ATCC 33591; more than 256 µg/mL with E. faecium ATCC 29212; 256 µg/mL (≈ 499 µM) with S. aureus ATCC 6538; more than 256 µg/mL in the assay with S. aureus ATCC 25923. Moreover, the MIC in the assay with S. aureus ATCC 43300 is more than 256 µg/mL.
Take `C[C@@H]1CC[C@@]2(OC1)O[C@H]1C[C@H]3[C@@H]4CC=C5C[C@@H](O[C@H]6C=C[C@H](O)CO6)CC[C@]5(C)[C@H]4CC[C@]3(C)[C@H]1[C@@H]2C` [11β]: the “IC50 PC3” value in assay [1] was “completely inactive”; in assay [1] (listed as 11), “inactive”. The “IC50 MCF7” value in assay [2] was “completely inactive”; in assay [2] (listed as 11) it was “inactive”. The MIC (in the assay with S. aureus ATCC 12598; in assay [3]; in the assay with S. aureus ATCC 33591; in the assay on E. faecium ATCC 29212; in the assay with S. aureus ATCC 6538; in the assay with S. aureus ATCC 25923) was more than 256 µg/mL in each case. Also, the MIC with S. aureus ATCC 43300 was more than 256 µg/mL. For the same molecule, the “IC50 HaCaT” value in assay [4] was “completely inactive”; in assay [4] (listed as 11), “inactive”.
Take `C[C@@H]1CC[C@@]2(OC1)O[C@H]1C[C@H]3[C@@H]4CC=C5C[C@@H](O[C@H]6C=C[C@@H](O)[C@H](C)O6)CC[C@]5(C)[C@H]4CC[C@]3(C)[C@H]1[C@@H]2C` [9α, Diosgenyl 2,3,6-Trideoxy-α-L-erythro-hex-2-enopyranoside]: the IC50 amounted to 25.4 µM in assay [1], 183 µM in [2] and 43.4 µM in [4]. Moreover, the “SI PC3 (selectivity index)” value in assay [1] was found to be 1.71. In addition, the “SI MCF7 (selectivity index)” value in [2] was found to be 0.24. Further, the MIC (in the assay on S. aureus ATCC 12598; in assay [3]; with S. aureus ATCC 33591; in the assay on E. faecium ATCC 29212; with S. aureus ATCC 6538; in the assay on S. aureus ATCC 25923) was more than 256 µg/mL throughout. The MIC in the assay on S. aureus ATCC 43300 was more than 256 µg/mL.
On to `C[C@@H]1CC[C@@]2(OC1)O[C@H]1C[C@H]3[C@@H]4CC=C5C[C@@H](O[C@@H]6CC[C@H](O)[C@@H](CO)O6)CC[C@]5(C)[C@H]4CC[C@]3(C)[C@H]1[C@@H]2C` [13α, Diosgenyl 2,3-Dideoxy-α-D-erythro-hexopyranoside], for which the IC50 in assay [1] is 22.5 µM; in [2], 38.6 µM; in assay [4] it was 21.6 µM. Further, the “SI PC3 (selectivity index)” value in assay [1] was determined as 0.96. In addition, in assay [2], the “SI MCF7 (selectivity index)” value worked out at 0.56. Besides, the MIC (with S. aureus ATCC 12598; in [3]; in the assay with S. aureus ATCC 33591; in the assay with E. faecium ATCC 29212; in the assay with S. aureus ATCC 6538; in the assay with S. aureus ATCC 25923) was more than 256 µg/mL throughout. Besides, the MIC in the assay with S. aureus ATCC 43300 is more than 256 µg/mL.
For the molecule `C[C@@H]1CC[C@@]2(OC1)O[C@H]1C[C@H]3[C@@H]4CC=C5C[C@@H](O[C@H]6CC[C@H](O)[C@H](C)O6)CC[C@]5(C)[C@H]4CC[C@]3(C)[C@H]1[C@@H]2C` [16α, Diosgenyl 2,3,6-Trideoxy-α-L-threo-hexopyranoside], the IC50 in assay [1] was 29.9 µM; in assay [2], 36.6 µM; in assay [4] it was 30.6 µM. The “SI PC3 (selectivity index)” value in [1] is 1.02. Besides, the “SI MCF7 (selectivity index)” value in [2] amounted to 0.84. Moreover, the MIC (in the assay on S. aureus ATCC 12598; in assay [3]; with S. aureus ATCC 33591; in the assay with E. faecium ATCC 29212; in the assay with S. aureus ATCC 6538; with S. aureus ATCC 25923) was more than 256 µg/mL each time. In addition, the MIC in the assay on S. aureus ATCC 43300 was more than 256 µg/mL.
`C[C@@H]1CC[C@@]2(OC1)O[C@H]1C[C@H]3[C@@H]4CC=C5C[C@@H](O[C@@H]6CC[C@@H](O)CO6)CC[C@]5(C)[C@H]4CC[C@]3(C)[C@H]1[C@@H]2C` [18β]: the IC50 is 28.9 µM in [1], 26.9 µM in [2] and 59.9 µM in assay [4]. The “SI PC3 (selectivity index)” value was “ca. 2” in [1] and 2.07 in assay [1] (listed as 18). In addition, the “SI MCF7 (selectivity index)” value in assay [2] is recorded as “ca. 2”; in assay [2] (listed as 18) it was 2.23. For the same molecule, the MIC (with S. aureus ATCC 12598; in assay [3]; with S. aureus ATCC 33591; in the assay on E. faecium ATCC 29212; in the assay on S. aureus ATCC 6538; in the assay on S. aureus ATCC 25923) was more than 256 µg/mL in each case. In addition, the MIC in the assay with S. aureus ATCC 43300 is more than 256 µg/mL.
